Reference: US20030176314A1, “Compounds for the treatment of pain” (priority 2001, published 2003)

What follows are compounds tested against T1, rat NPFF1 receptor (Rattus norvegicus, UniProt Q9EP86) (assay: Functional assay (agonist potency, intrinsic activity) at cloned rat NPFF1 receptor). Conditions: Table 4; percent of maximum response elicited by neuropeptide FF.
T1 construct: expressed in transfected cells; host or cells: not given
Assay type: cell-based

T1 sequence (Q9EP86 whole entry): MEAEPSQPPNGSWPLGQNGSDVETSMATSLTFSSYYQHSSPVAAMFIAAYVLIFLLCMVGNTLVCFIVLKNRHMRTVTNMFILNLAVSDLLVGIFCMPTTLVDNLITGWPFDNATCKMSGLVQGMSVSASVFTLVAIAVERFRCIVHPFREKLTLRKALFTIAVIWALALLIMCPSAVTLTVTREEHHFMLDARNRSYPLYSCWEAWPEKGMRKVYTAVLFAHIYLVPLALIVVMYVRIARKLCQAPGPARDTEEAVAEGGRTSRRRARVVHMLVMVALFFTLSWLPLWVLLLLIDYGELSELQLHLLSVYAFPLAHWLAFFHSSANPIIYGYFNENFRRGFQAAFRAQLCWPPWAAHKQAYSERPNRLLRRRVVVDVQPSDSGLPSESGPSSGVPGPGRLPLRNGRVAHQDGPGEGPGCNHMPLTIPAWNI

Compound | Functional Activity rNPFF1 I.A. % [%]
N=C(N)NCCC[C@H](NS(=O)(=O)c1c(F)cccc1F)C(=O)N[C@@H](Cc1ccccc1)C(N)=O [Compound 1004B] | 79
COc1ccc(S(=O)(=O)N[C@@H](CCCNC(=N)N)C(=O)N[C@@H](Cc2ccccc2)C(N)=O)cc1OC [Compound 1015B] | 84
N=C(N)NCCC[C@H](NS(=O)(=O)c1ccc(Cl)c(Cl)c1)C(=O)N[C@@H](Cc1ccccc1)C(N)=O [Compound 1022B] | 86
COc1ccc(Br)cc1S(=O)(=O)N[C@@H](CCCNC(=N)N)C(=O)N[C@@H](Cc1ccccc1)C(N)=O [Compound 1025B] | 78
N=C(N)NCCC[C@H](NS(=O)(=O)c1ccccc1[N+](=O)[O-])C(=O)N[C@@H](Cc1ccccc1)C(N)=O [Compound 1026B] | 79
N#Cc1ccccc1S(=O)(=O)N[C@@H](CCCNC(=N)N)C(=O)N[C@@H](Cc1ccccc1)C(N)=O [Compound 1027B] | 52
N=C(N)NCCC[C@H](NS(=O)(=O)c1ccccc1Br)C(=O)N[C@@H](Cc1ccccc1)C(N)=O [Compound 2001B] | 81
N=C(N)NCCC[C@H](NS(=O)(=O)c1ccc([N+](=O)[O-])cc1[N+](=O)[O-])C(=O)N[C@@H](Cc1ccccc1)C(N)=O [Compound 2002B] | 34
COc1ccc(C)cc1S(=O)(=O)N[C@@H](CCCNC(=N)N)C(=O)N[C@@H](Cc1ccccc1)C(N)=O [Compound 2003B] | 102

Same assay, conditions: Table 4; read-out: Functional Activity rNPFF1 EC50

Compound | EC50 [µM]
N=C(N)NCCC[C@H](NS(=O)(=O)c1ccc(Cl)c(Cl)c1)C(=O)N[C@@H](Cc1ccccc1)C(N)=O [Compound 1022B] | 1.86
COc1ccc(Br)cc1S(=O)(=O)N[C@@H](CCCNC(=N)N)C(=O)N[C@@H](Cc1ccccc1)C(N)=O [Compound 1025B] | 0.596

Same assay, conditions: Table 5; percent of maximum response elicited by neuropeptide FF

Compound | Functional Activity rNPFF1 I.A. % [%]
N=C(N)NCCC[C@@H](NS(=O)(=O)c1ccc(F)cc1)C(=O)N[C@@H](Cc1ccccc1)C(N)=O [Compound 1028B] | 46

Same assay, conditions: Table 7, agonist potency; read-out: rNPFF1 EC50

Compound | EC50 [µM]
Cc1nc(NC(=N)N)nc2ccc(OCCCCCOc3ccccc3)cc12 [Compound 1005A, N-4-methyl-6-[(5-phenoxypentyl)oxy]-2-quinazolinylguanidine] | > 10
CCCCCCCCc1ccc2nc(NC(=N)N)nc(C)c2c1 [Compound 1009A, N-(4-methyl-6-octyl-2-quinazolinyl)guanidine] | 1.49
CCc1nc(NC(=N)N)nc2ccc(C)cc12 [Compound 1027A] | > 10
Cc1nc(NC(=N)N)nc2cc3ccoc3cc12 [Compound 1039A, N-(4-methylfuro[2,3-g]quinazolin-2-yl)guanidine] | > 10

Same assay, conditions: Table 7, intrinsic activity

Compound | rNPFF1 IA
Cc1nc(NC(=N)N)nc2ccc(C(C)(C)C)cc12 [Compound 1004A, N-(6-tert-butyl-4-methyl-2-quinazolinyl)guanidine] | 36% NPFF
Cc1nc(NC(=N)N)nc2ccc(OCCCCCOc3ccccc3)cc12 [Compound 1005A, N-4-methyl-6-[(5-phenoxypentyl)oxy]-2-quinazolinylguanidine] | Inactive
Cc1nc(NC(=N)N)nc2cc(OCc3ccccc3)ccc12 [Compound 1006A, N-[7-(benzyloxy)-4-methyl-2-quinazolinyl]guanidine] | 15% NPFF
CCc1nc(NC(=N)N)nc2ccc(C)cc12 [Compound 1027A] | Inactive

Same assay, conditions: agonist: IA>15%; antagonist: Ki≦1.2 mM and IA≦15% at the rat cloned NPFF receptors

Compound | classification as agonist or antagonist at the NPFF1 receptor
COc1ccc(C)cc1S(=O)(=O)N[C@@H](CCCNC(=N)N)C(=O)N[C@@H](Cc1ccccc1)C(N)=O [Compound 2003B] | agonists

The compounds below were run against T2, rat NPFF2 receptor (Rattus norvegicus, UniProt Q9EQD2) (assay: Competition binding at cloned rat NPFF2 receptor ([125I]1DMeNPFF displacement)). Conditions: Table 3, recombinant rat NPFF2; read-out: rNPFF2 Ki.
T2 construct: The full-length NPFF2 was amplified from rat spinal cord cDNA; expressed in transfected cells; host or cells: not given
Experimental: Transfected cells from culture flasks are scraped into 5 ml of 20 mM Tris-HCl, 5 mM EDTA, pH 7.5, and lysed by sonication. The cell lysates are centrifuged at 1000 rpm for 5 min. at 4° C., and the supernatant is centrifuged at 30,000×g for 20 min. at 4° C. […] Optimal membrane suspension dilutions, defined as the protein concentration required to bind less than 10% of the added radioligand, […], unlabeled compounds, and binding buffer to a final volume of 250 μl. In equilibrium saturation binding assays membrane preparations are incubated in the presence of increasing concentrations of [^3H]-labeled compound.
(§1) Competition assay: 50 pM radioligand, 10-12 points. Binding reaction mixtures are incubated for 2 hr at 25° C., and the reaction stopped by filtration through a double layer of GF filters treated with 0.1% polyethyleneimine, using a cell harvester. Wash buffer: 50 mM Tris-HCl, 0.1% BSA. Radioactivity may be measured by scintillation counting and data are analyzed by a computerized non-linear regression program. Non-specific binding is defined as the amount of radioactivity remaining after incubation of membrane protein in the presence of 1 μM final concentration […]. Protein concentration may be measured by the Bradford method using Bio-Rad Reagent, with bovine serum albumin as a standard.

T2 sequence (Q9EQD2 whole entry): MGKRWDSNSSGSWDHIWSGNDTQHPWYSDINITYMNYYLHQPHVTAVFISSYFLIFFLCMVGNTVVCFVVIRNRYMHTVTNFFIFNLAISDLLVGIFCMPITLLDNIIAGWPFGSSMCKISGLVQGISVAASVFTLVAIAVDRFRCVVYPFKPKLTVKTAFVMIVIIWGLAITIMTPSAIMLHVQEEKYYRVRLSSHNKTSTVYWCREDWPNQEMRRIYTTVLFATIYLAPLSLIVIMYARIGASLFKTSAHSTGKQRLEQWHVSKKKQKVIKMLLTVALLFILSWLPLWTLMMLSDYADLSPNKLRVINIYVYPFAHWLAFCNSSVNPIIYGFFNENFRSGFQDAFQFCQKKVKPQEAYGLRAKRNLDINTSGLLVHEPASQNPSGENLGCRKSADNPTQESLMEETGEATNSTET

Compound | Ki [µM]
Cc1nc(NC(=N)N)nc2ccc(OCCCCCOc3ccccc3)cc12 [Compound 1005A, N-4-methyl-6-[(5-phenoxypentyl)oxy]-2-quinazolinylguanidine] | 2.14
CCc1nc(NC(=N)N)nc2ccc(C)cc12 [Compound 1027A] | 3.15

Same assay, conditions: Table 4; read-out: Ki Values rNPFF2

Compound | Ki [µM]
COc1ccc(Br)cc1S(=O)(=O)N[C@@H](CCCNC(=N)N)C(=O)N[C@@H](Cc1ccccc1)C(N)=O [Compound 1025B] | 4.12
COc1ccc(C)cc1S(=O)(=O)N[C@@H](CCCNC(=N)N)C(=O)N[C@@H](Cc1ccccc1)C(N)=O [Compound 2003B] | > 10

What follows are compounds tested against T1, rat NPFF1 receptor (assay: Competition binding at cloned rat NPFF1 receptor ([125I]1DMeNPFF displacement)). Conditions: Table 3, recombinant rat NPFF1; read-out: rNPFF1 Ki.
Experimental: Transfected cells from culture flasks are scraped into 5 ml of 20 mM Tris-HCl, 5 mM EDTA, pH 7.5, and lysed by sonication. The cell lysates are centrifuged at 1000 rpm for 5 min. at 4° C., and the supernatant is centrifuged at 30,000×g for 20 min. at 4° C. […] Optimal membrane suspension dilutions, defined as the protein concentration required to bind less than 10% of the added radioligand, are […], unlabeled compounds, and binding buffer to a final volume of 250 μl. […]
as §1

Compound | Ki [µM]
Cc1nc(NC(=N)N)nc2ccc(OCCCCCOc3ccccc3)cc12 [Compound 1005A, N-4-methyl-6-[(5-phenoxypentyl)oxy]-2-quinazolinylguanidine] | 0.316
CCc1nc(NC(=N)N)nc2ccc(C)cc12 [Compound 1027A] | 0.606

Same assay, conditions: Table 4; read-out: Ki Values rNPFF1

Compound | Ki [µM]
COc1ccc(Br)cc1S(=O)(=O)N[C@@H](CCCNC(=N)N)C(=O)N[C@@H](Cc1ccccc1)C(N)=O [Compound 1025B] | 0.328

These compounds were tested against T2, rat NPFF2 receptor (assay: Functional assay (agonist potency, intrinsic activity) at cloned rat NPFF2 receptor). Conditions: Table 4; percent of maximum response elicited by neuropeptide FF.
Assay type: cell-based

Compound | Functional Activity rNPFF2 I.A. % [%]
N=C(N)NCCC[C@H](NS(=O)(=O)c1c(F)cccc1F)C(=O)N[C@@H](Cc1ccccc1)C(N)=O [Compound 1004B] | 43
COc1ccc(S(=O)(=O)N[C@@H](CCCNC(=N)N)C(=O)N[C@@H](Cc2ccccc2)C(N)=O)cc1OC [Compound 1015B] | 74
N=C(N)NCCC[C@H](NS(=O)(=O)c1ccc(Cl)c(Cl)c1)C(=O)N[C@@H](Cc1ccccc1)C(N)=O [Compound 1022B] | 34
COc1ccc(Br)cc1S(=O)(=O)N[C@@H](CCCNC(=N)N)C(=O)N[C@@H](Cc1ccccc1)C(N)=O [Compound 1025B] | 33
N=C(N)NCCC[C@H](NS(=O)(=O)c1ccccc1[N+](=O)[O-])C(=O)N[C@@H](Cc1ccccc1)C(N)=O [Compound 1026B] | 59
N#Cc1ccccc1S(=O)(=O)N[C@@H](CCCNC(=N)N)C(=O)N[C@@H](Cc1ccccc1)C(N)=O [Compound 1027B] | 48
N=C(N)NCCC[C@H](NS(=O)(=O)c1ccccc1Br)C(=O)N[C@@H](Cc1ccccc1)C(N)=O [Compound 2001B] | 9
N=C(N)NCCC[C@H](NS(=O)(=O)c1ccc([N+](=O)[O-])cc1[N+](=O)[O-])C(=O)N[C@@H](Cc1ccccc1)C(N)=O [Compound 2002B] | 5
COc1ccc(C)cc1S(=O)(=O)N[C@@H](CCCNC(=N)N)C(=O)N[C@@H](Cc1ccccc1)C(N)=O [Compound 2003B] | 52

Same assay, conditions: Table 4; read-out: Functional Activity rNPFF2 EC50

Compound | EC50 [µM]
N=C(N)NCCC[C@H](NS(=O)(=O)c1c(F)cccc1F)C(=O)N[C@@H](Cc1ccccc1)C(N)=O [Compound 1004B] | > 3.16
N=C(N)NCCC[C@H](NS(=O)(=O)c1ccc(Cl)c(Cl)c1)C(=O)N[C@@H](Cc1ccccc1)C(N)=O [Compound 1022B] | > 3.16
COc1ccc(Br)cc1S(=O)(=O)N[C@@H](CCCNC(=N)N)C(=O)N[C@@H](Cc1ccccc1)C(N)=O [Compound 1025B] | > 3.16
COc1ccc(C)cc1S(=O)(=O)N[C@@H](CCCNC(=N)N)C(=O)N[C@@H](Cc1ccccc1)C(N)=O [Compound 2003B] | > 3.16

Same assay, conditions: Table 5; percent of maximum response elicited by neuropeptide FF

Compound | Functional Activity rNPFF2 I.A. % [%]
N=C(N)NCCC[C@@H](NS(=O)(=O)c1ccc(F)cc1)C(=O)N[C@@H](Cc1ccccc1)C(N)=O [Compound 1028B] | 62

Same assay, conditions: Table 7, agonist potency; read-out: rNPFF2 EC50

Compound | EC50 [µM]
Cc1nc(NC(=N)N)nc2ccc(OCCCCCOc3ccccc3)cc12 [Compound 1005A, N-4-methyl-6-[(5-phenoxypentyl)oxy]-2-quinazolinylguanidine] | 3.16
CCc1nc(NC(=N)N)nc2ccc(C)cc12 [Compound 1027A] | > 10

Same assay, conditions: Table 7, intrinsic activity

Compound | rNPFF2 IA [% NPFF]
Cc1nc(NC(=N)N)nc2ccc(C(C)(C)C)cc12 [Compound 1004A, N-(6-tert-butyl-4-methyl-2-quinazolinyl)guanidine] | 90
Cc1nc(NC(=N)N)nc2ccc(OCCCCCOc3ccccc3)cc12 [Compound 1005A, N-4-methyl-6-[(5-phenoxypentyl)oxy]-2-quinazolinylguanidine] | 21
Cc1nc(NC(=N)N)nc2cc(OCc3ccccc3)ccc12 [Compound 1006A, N-[7-(benzyloxy)-4-methyl-2-quinazolinyl]guanidine] | 22
CCCCCCCCc1ccc2nc(NC(=N)N)nc(C)c2c1 [Compound 1009A, N-(4-methyl-6-octyl-2-quinazolinyl)guanidine] | 22
CCc1nc(NC(=N)N)nc2ccc(C)cc12 [Compound 1027A] | 31
Cc1nc(NC(=N)N)nc2cc3ccoc3cc12 [Compound 1039A, N-(4-methylfuro[2,3-g]quinazolin-2-yl)guanidine] | 78

Same assay, conditions: agonist: IA>15%; antagonist: Ki≦1.2 mM and IA≦15% at the rat cloned NPFF receptors

Compound | classification as agonist or antagonist at the NPFF2 receptor
COc1ccc(C)cc1S(=O)(=O)N[C@@H](CCCNC(=N)N)C(=O)N[C@@H](Cc1ccccc1)C(N)=O [Compound 2003B] | agonists
